Measured values reported in patent US20080280879A1, “SUBSTITUTED HETEROCYCLIC DERIVATIVES AND THEIR PHARMACEUTICAL USE AND COMPOSITIONS” (priority 2007, published 2008).
≈ marks a conversion by molar mass, not a printed value.

Key:
Format in all cases: cell-based, Staphylococcus aureus
[1] = tested on: Staph aureus 2811; assay: MIC, microtiter broth dilution (CLSI M7-A7), Assay 1, Table 12 column D, no serum; conditions: for MIC: Staphylococcus aureus, 2811, Staph aureus 2811, Assay 1, no serum; for MIC, column D: Staph aureus 2811, Assay 1, no serum
Method in brief: (§1)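 Compounds were prepared in DMSO at 10 mg/ml, then tested by microtiter broth dilution following CLSI M7-A7. Growth was scored visually, and the MIC taken as the lowest concentration without macroscopically visible growth. Where tested repeatedly, the geometric mean is given.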

[2] = tested on: Staph aureus 1146; assay: MIC in Mueller-Hinton Broth with 50% pooled inactivated human serum, Assay 1, Table 12; conditions: for MIC: Staphylococcus aureus, 1146, Staph aureus 1146, Assay 1, 50% human serum, read-out: MIC, column C; for MIC, column C: Staph aureus 1146, Assay 1, 50% human serum
Method in brief: as §1

[3] = tested on: Staph aureus 2812; assay: MIC, microtiter broth dilution (CLSI M7-A7), Assay 1, Table 12 column E, no serum; conditions: for MIC: Staphylococcus aureus, 2812, Staph aureus 2812, Assay 1, no serum; for MIC, column E: Staph aureus 2812, Assay 1, no serum
Method in brief: as §1

[4] = tested on: Staph aureus 1146; assay: MIC, microtiter broth dilution (CLSI M7-A7), Assay 1, Table 12 column B, no serum; conditions: for MIC: Staphylococcus aureus, 1146, Staph aureus 1146, Assay 1, no serum; for MIC, column B: Staph aureus 1146, Assay 1, no serum
Method in brief: as §1

[5] = tested on: Staph aureus 1095 MRSA; assay: MIC, microtiter broth dilution (CLSI M7-A7), Assay 1, Table 12 column A, no serum; conditions: Assay 1, no serum; for MIC: Staphylococcus aureus, MRSA
Method in brief: as §1

| Structure (SMILES) | MIC [1] | MIC [2] | MIC [3] | MIC [4] | MIC [5] | MIC, column C [2] | MIC, column D [1] | MIC, column E [3] | MIC, column B [4] | MIC, column A [5] |
| --- | --- | --- | --- | --- | --- | --- | --- | --- | --- | --- |
| CNC(=O)[C@H]1CN(C2CC(c3ccccc3)C2)CC[C@H]1CCC(O)c1ccnc2ccc(OC)cc12 (stereo partly drawn) [Example 145, (3R,4R)-4-[3-Hydroxy-3-(6-methoxy-quinolin-4-yl)-propyl]-1-(3-phenyl-cyclobutyl)-piperidine-3-carboxylic acid methylamide] | 0.5 µg/mL (≈ 1.03 µM) | 4 µg/mL (≈ 8.2 µM) | 1 µg/mL (≈ 2.05 µM) | 1 µg/mL (≈ 2.05 µM) | 0.25 µg/mL (≈ 0.513 µM) |  |  |  |  |  |
| COc1ccc2nccc(C(O)CC[C@@H]3CCN(C4CC(CC5CCCO5)C4)C[C@@H]3C(=O)O)c2c1 (stereo partly drawn) [Example 52, (3R,4R)-4-[3-hydroxy-3-(6-methoxyquinolin-4-yl)propyl]-1-[3-(tetrahydrofuran-2-ylmethyl)cyclobutyl]piperidine-3-carboxylic acid] | 8 µg/mL (≈ 16.6 µM) | 16 µg/mL (≈ 33.2 µM) | 32 µg/mL (≈ 66.3 µM) | 16 µg/mL (≈ 33.2 µM) | > 64 µg/mL |  |  |  |  |  |
| COc1ccc2nccc(C(O)CCC3CCN(C[C@@H]4C[C@H]4c4cc(F)ccc4F)CC3C(=O)O)c2c1 (relative stereo) [Example 26, 1-{[(trans)-2-(2,5-difluorophenyl)cyclopropyl]methyl}-4-[3-hydroxy-3-(6-methoxyquinolin-4-yl)propyl] piperidine-3-carboxylic acid] | 0.25 µg/mL (≈ 0.49 µM) | 4 µg/mL (≈ 7.83 µM) | 0.25 µg/mL (≈ 0.49 µM) | 0.25 µg/mL (≈ 0.49 µM) | 1 µg/mL (≈ 1.96 µM) |  |  |  |  |  |
| COc1ccc2nccc(C(O)CC[C@@H]3CCN(C4CC(c5nc(C(C)(C)C)no5)C4)C[C@@H]3C(=O)O)c2c1 (stereo partly drawn) [Example 164, (3R,4R)-1-[3-(3-tert-butyl-1,2,4-oxadiazol-5-yl)cyclobutyl]-4-[3-hydroxy-3-(6-methoxyquinolin-4-yl)propyl]piperidine-3-carboxylic acid] | 64 µg/mL (≈ 122 µM) | > 64 µg/mL | 64 µg/mL (≈ 122 µM) | 64 µg/mL (≈ 122 µM) | > 64 µg/mL |  |  |  |  |  |
| CNC(CC[C@@H]1CCN(C2CC(c3ccccc3)C2)C[C@@H]1C(=O)O)c1ccnc2ccc(OC)cc12 (stereo partly drawn) [Example 136, (3R,4R)-4-[3-(6-Methoxy-quinolin-4-yl)-3-methylamino-propyl]-1-(3-phenyl-cyclobutyl)-piperidine-3-carboxylic acid] | 4 µg/mL (≈ 8.2 µM) | 4 µg/mL (≈ 8.2 µM) | 8 µg/mL (≈ 16.4 µM) | 4 µg/mL (≈ 8.2 µM) | 8 µg/mL (≈ 16.4 µM) |  |  |  |  |  |
| COc1ccc2nccc(C(O)CC[C@@H]3CCN(C4CC(c5ccccc5C)C4)C[C@@H]3C(=O)O)c2c1 (stereo partly drawn) [Example 34, (3R,4R)-4-[3-hydroxy-3-(6-methoxyquinolin-4-yl)propyl]-1-[3-(2-methylphenyl)cyclobutyl] piperidine-3-carboxylic acid] | 0.5 µg/mL (≈ 1.02 µM) | 16 µg/mL (≈ 32.7 µM) | 0.5 µg/mL (≈ 1.02 µM) | 1 µg/mL (≈ 2.05 µM) | 1 µg/mL (≈ 2.05 µM) |  |  |  |  |  |
| COc1ccc2nccc([C@@H](O)CC[C@@H]3CCN(C4CC5c6ccccc6SC54)C[C@@H]3C(=O)O)c2c1 (some centres unmarked) [Example 225] | 0.25 µg/mL (≈ 0.495 µM) | 2 µg/mL (≈ 3.96 µM) | 0.5 µg/mL (≈ 0.991 µM) | 0.25 µg/mL (≈ 0.495 µM) | 1 µg/mL (≈ 1.98 µM) |  |  |  |  |  |
| COc1ccc2ncc(F)c([C@@H](O)CNC3(C(=O)O)CCCN(C4CC(c5ccccc5)C4)CC3)c2c1 (single isomer, unassigned) [Example 149] | 2 µg/mL (≈ 3.94 µM) | 4 µg/mL (≈ 7.88 µM) | 2 µg/mL (≈ 3.94 µM) | 2 µg/mL (≈ 3.94 µM) | 8 µg/mL (≈ 15.8 µM) |  |  |  |  |  |
| COc1ccc2ncc(Cl)c(C(O)CC[C@@H]3CCN(C4CC(c5c(F)cccc5F)C4)C[C@@H]3C(=O)O)c2c1 (stereo partly drawn) [Example 188, (3R,4R)-4-[3-(3-chloro-6-methoxyquinolin-4-yl)-3-hydroxypropyl]-1-[3-(2,6-difluorophenyl)cyclobutyl]piperidine-3-carboxylic acid] | < 0.0625 µg/mL |  | < 0.0625 µg/mL | < 0.0625 µg/mL | < 0.0625 µg/mL | 0.500 µg/mL (≈ 0.917 µM) |  |  |  |  |
| COc1ccc2ncc(Cl)c(C(O)CC[C@@H]3CCN(C4CC(c5ccccc5)C4)C[C@@H]3C(=O)O)c2c1 (stereo partly drawn) [Example 212, (3R,4R)-4-[3-(3-chloro-6-methoxyquinolin-4-yl)-3-hydroxypropyl]-1-(3-phenylcyclobutyl)piperidine-3-carboxylic acid] |  |  |  |  |  | 2.00 µg/mL (≈ 3.93 µM) | <0.0625 µg/mL | <0.0625 µg/mL | <0.0625 µg/mL | <0.0625 µg/mL |
| O=C(O)[C@H]1CN(C2CC(c3cc(F)ccc3F)C2)CC[C@H]1CCC(O)c1c(F)cnc2ccc(O)nc12 (mixture of isomers) [Example 206, (3R,4R)-1-[3-(2,5-difluorophenyl)cyclobutyl]-4-[3-(3-fluoro-6-hydroxy-1,5-naphthyridin-4-yl)-3-hydroxypropyl]piperidine-3-carboxylic acid] | 2 µg/mL | 16 µg/mL | 4 µg/mL | 2 µg/mL | 4 µg/mL |  |  |  |  |  |
| COc1ccc2nccc(C(O)CC[C@@H]3CCN(C4CC(c5c(C)cccc5C)C4)C[C@@H]3C(=O)O)c2c1 (stereo partly drawn) [Example 35, (3R,4R)-1-[3-(2,6-dimethylphenyl)cyclobutyl]-4-[3-hydroxy-3-(6-methoxyquinolin-4-yl)propyl] piperidine-3-carboxylic acid] | 1 µg/mL (≈ 1.99 µM) | 64 µg/mL (≈ 127 µM) | 1 µg/mL (≈ 1.99 µM) | 1 µg/mL (≈ 1.99 µM) | 4 µg/mL (≈ 7.96 µM) |  |  |  |  |  |
| COc1ccc2nccc(C(O)CC[C@@H]3CCN(C4CC5CCCCCC54)C[C@@H]3C(=O)O)c2c1 (stereo partly drawn) [Example 53, (3R,4R)-1-[(1,7)-bicyclo[5.2.0]non-8-yl]-4-[3-hydroxy-3-(6-methoxyquinolin-4-yl)propyl] piperidine-3-carboxylic acid] |  |  |  |  |  | >64 µg/mL | 32 µg/mL (≈ 68.6 µM) | 16 µg/mL (≈ 34.3 µM) | >64 µg/mL | 16 µg/mL (≈ 34.3 µM) |
| COc1ccc2nccc(C(O)CC[C@@H]3CCN(C4CC(c5ccc(O)cc5)C4)C[C@@H]3C(=O)O)c2c1 (stereo partly drawn) [Example 31, (3R,4R)-4-[3-hydroxy-3-(6-methoxyquinolin-4-yl)propyl]-1-[3-(4-hydroxyphenyl)cyclobutyl] piperidine-3-carboxylic acid] | 32 µg/mL (≈ 65.2 µM) | > 64 µg/mL | 32 µg/mL (≈ 65.2 µM) | 32 µg/mL (≈ 65.2 µM) | 16 µg/mL (≈ 32.6 µM) |  |  |  |  |  |
| COc1ccc2ncc(F)c(C(O)CC[C@@H]3CCN(C4CC(c5cc(F)ccc5F)C4)C[C@@H]3C(=O)O)c2c1 (single isomer, unassigned) [Example 60] |  |  |  |  |  | 4 µg/mL (≈ 7.57 µM) | <=.0625 μg/ml | <=.0625 μg/ml | <=.0625 μg/ml | 0.125 µg/mL (≈ 0.236 µM) |
| COc1ccc2ncc(Cl)c(CCNC3(C(=O)O)CCCN(CC4CC4c4cc(F)ccc4F)CC3)c2c1 (centres unmarked) [Example 156, 4-{[2-(3-chloro-6-methoxyquinolin-4-yl)ethyl]amino}-1-{[2-(2,5-difluorophenyl)cyclopropyl]methyl}azepane-4-carboxylic acid] | 0.5 µg/mL (≈ 0.919 µM) | > 33 µg/mL | 0.25 µg/mL (≈ 0.46 µM) | 0.25 µg/mL (≈ 0.46 µM) | 1 µg/mL (≈ 1.84 µM) |  |  |  |  |  |
| COc1ccc2nccc([C@@H](O)CC[C@@H]3CCN(C4CC(c5cccc(Cl)c5F)C4)C[C@@H]3C(=O)O)c2c1 (stereo partly drawn) [Example 64, (3R,4R)-1-[3-(3-chloro-2-fluorophenyl)cyclobutyl]-4-[(3S)-3-hydroxy-3-(6-methoxyquinolin-4-yl)propyl]piperidine-3-carboxylic acid] | ≤ 0.0625 µg/mL | 8 µg/mL (≈ 15.2 µM) | ≤ 0.0625 µg/mL | ≤ 0.0625 µg/mL | ≤ 0.0625 µg/mL |  |  |  |  |  |
| COc1ccc2nccc(C(CC[C@@H]3CCN(C4CC(c5ccccc5)C4)C[C@@H]3C(=O)O)N3CCC3)c2c1 (stereo partly drawn) [Example 137, (3R,4R)-4-[3-Azetidin-1-yl-3-(6-methoxy-quinolin-4-yl)-propyl]-1-(3-phenylcyclobutyl)piperidine-3-carboxylic acid] | 64 µg/mL (≈ 125 µM) | > 64 µg/mL | 64 µg/mL (≈ 125 µM) | 64 µg/mL (≈ 125 µM) | > 64 µg/mL |  |  |  |  |  |
| COc1ccc2ncc(Cl)c(CCCC3(C(=O)O)CCN(C4CC(c5ccccc5)C4)CC3O)c2c1 (centres unmarked) [Example 109, 4-[3-(3-chloro-6-methoxyquinolin-4-yl)propyl]-3-hydroxy-1-(3-phenylcyclobutyl)piperidine-4-carboxylic acid] | 0.25 µg/mL (≈ 0.491 µM) | > 64 µg/mL | 1 µg/mL (≈ 1.96 µM) | 0.5 µg/mL (≈ 0.982 µM) | 1 µg/mL (≈ 1.96 µM) |  |  |  |  |  |
| COc1ccc2nccc(C(O)CC[C@@H]3CCN(C4CC(O)(c5ccccc5)C4)C[C@@H]3C(=O)O)c2c1 (stereo partly drawn) [Example 94, (3R,4R)-4-[3-hydroxy-3-(6-methoxyquinolin-4-yl)propyl]-1-(3-hydroxy-3-phenylcyclobutyl)piperidine-3-carboxcylic acid] |  |  |  |  |  | >64 µg/mL | >64 µg/mL | >64 µg/mL | 32 µg/mL (≈ 65.2 µM) | >64 µg/mL |
| COc1ccc2nccc(C(O)CC[C@@H]3CCN(C4CC(Oc5ccccc5)C4)C[C@@H]3C(=O)O)c2c1 (stereo partly drawn) [Example 8, (3R,4R)-4-[3-hydroxy-3-(6-methoxyquinolin-4-yl)propyl]-1-(3-phenoxycyclobutyl)piperidine-3-carboxylic acid] | 0.125 µg/mL (≈ 0.255 µM) | 8 µg/mL (≈ 16.3 µM) | 0.25 µg/mL (≈ 0.51 µM) | 0.25 µg/mL (≈ 0.51 µM) | 0.25 µg/mL (≈ 0.51 µM) |  |  |  |  |  |
| COc1ccc2nccc(C(O)CC[C@@H]3CCN(C4CC5CCCCC54)C[C@@H]3C(=O)O)c2c1 (stereo partly drawn) [Example 54, (3R,4R)-1-[(1,6)-bicyclo[4.2.0]oct-7-yl]-4-[3-hydroxy-3-(6-methoxyquinolin-4-yl)propyl] piperidine-3-carboxylic acid] |  |  |  |  |  | >64 µg/mL | >64 µg/mL | >64 µg/mL | 64 µg/mL (≈ 141 µM) | >64 µg/mL |
